# Results: patent publication US9284297B2, “Halofuginone analogs for inhibition of tRNA synthetases and uses thereof” (President and Fellows of Harvard College, priority 2008, dated 2016)
# Tests used:
# dermal ECM deposition = settings: introduced intraperitoneally, added to food, or applied locally; cited from earlier work
# [1] = system: eIF2α phosphorylation and ATF4 protein levels in CD4+ CD25− T cells; experiment: Amino acid response (AAR) pathway activation in T cells, western blot; format: cell-based, mice
# Experimental: CD4+ CD25− T cells purified from wild type of GCN2−/− mice were activated through TCR for 4 hours in the presence of halofuginone (10 nM) or 9 (MAZ1310, 10 nM). Whole cell lysates were analyzed by SDS PAGE/Western blot and antibodies indicated.
# Naïve T-cells were treated to stimulate the T-cell receptor (TCR) in the presence or absence of 10 nM halofuginone in the presence of 1 mM added amino acid, and then assayed for eIF2alpha activity phosphorylation by SDS PAGE/Western blot.
# HF induced detectable eIF2α phosphorylation at 2.5 nM, and this effect plateaued at 5-10 nM HF (FIG. 7D). […] AAR activation was a general consequence of HF treatment; HF induced eIF2α phosphorylation, not only in T cells activated in Th17-priming conditions, but also in resting naïve T cells and T cells activated in ThN, Th1, Th2, and iTreg polarizing conditions (FIG. 7F). […] Thus, the rapid activation of the AAR pathway by HF could underlie both its selective inhibition of Th17 differentiation and its effects on fibroblasts (Pines and Nagler, Gen. Pharmacol. 30:445, 1998).
# To delineate the stress response pathway activated by HF, the effects of amino acid starvation with those of tunicamycin (an inducer of ER stress) or HF treatment during T cell activation were compared.
# Whole cell lysates were generated from T cells activated for the indicated times. For STAT3 and Smad2/3 western blots cells were harvested, washed in PBS and lysed in 50 mM Tris, pH 7.4, 0.1% SDS, 1% Triton-X100, 140 mM NaCl, 1 mM EDTA, 1 mM EGTA supplemented with protease inhibitors tablets (Roche, Germany), 1 mM NaF and 1 mM Na3VO4. For eIF2α and ATF4 western blots, cells were harvested as above and lysed in 50 mM Tris, pH 7.4, 2% SDS, 20% glycerol and 2 mM EDTA supplemented with protease and phosphatase inhibitors as above. All lysates were cleared via centrifugation and 15-30 μg of protein was resolved by SDS-PAGE. Protein was transferred to nitrocellulose membranes, blocked and blotted using specific antibodies. Antibodies used for western blot analysis were anti-phospho-Smad2, anti-STAT3 (pY705), anti-STAT3, anti-eIF2α^pS51, anti-eIF2α (all from Cell Signaling Technology, Danvers, Mass.). Anti-ATF4/CREB2 and anti-β-actin were purchased from Santa Cruz Biotechnology (Santa Cruz, Calif.). HRP-conjugated secondary antibodies were all purchased from Sigma, with the exception of HRP-conjugated anti-armenian hamster antibody (Jackson Immunoresearch, West Grove, Pa.).
# [2] = in vivo; cited from earlier work
# [3] = system: translation of luciferase RNA in rabbit reticulocyte lysate; experiment: Translation of a luciferase RNA reporter in rabbit reticulocyte lysate; format: biochemical; design: key to Translational inhibition: “+++” vs. “++” vs. “+” in general denotes ˜4-fold differences in potency; “+++” vs. “++” vs. “+” in general denotes ˜4-fold differences in potency; “+++” vs. “++” vs. “+” in general denotes ˜4-fold differences in potency; “−” denotes no activity at any dose tested, up to 1000× the effective dose of halofuginone
# Experimental: To distinguish these possibilities, the effect of halofuginone on protein translation was examined in an in vitro system (rabbit reticulocyte lysate) in which amino acids are already present at levels adequate to support protein synthesis. […] Distinct tRNA synthetases catalyze the charging of individual tRNA species with their cognate amino acid. To determine which tRNA synthetase is inhibited by halofuginone, several amino acid mixtures were added to the in vitro translation system to determine which, if any, could reverse the inhibition of translation by halofuginone (FIG. 3). […] To examine whether proline could specifically rescue the effect of halofuginone in intact cells, the ability of each amino acid to reverse the effect of halofuginone on eIF2alpha phosphorylation in T-cells or to prevent halofuginone inhibition of Th17 differentiation was tested (FIG. 4). […] Inhibition of EPRS with compounds of the current invention can inhibit Th17 differentiation.
# Translation in vitro was performed using rabbit reticulocyte lysates and luciferase mRNA as template. Translation was measured as arbitrary units of luciferase activity using a luminometer based luminescence assay. Log scale presentation of background-subtracted data is shown.
# Inhibition of translation of luciferase RNA by halofuginone and analogs thereof was measured as described in FIG. 3 above. Results are shown of translation of a luciferase RNA reporter in a rabbit reticulocyte lysate. “+++” vs. “++” vs. “+” in general denotes ˜4-fold differences in potency. “−” denotes no activity at any dose tested, up to 1000× the effective dose of halofuginone.
# [4] = system: Human primary dermal fibroblasts; experiment: Inhibition of cell spreading in a fibroblast model; format: cell-based; design: key: “+++” vs. “++” vs. “+” in general denotes ˜4-fold differences in potency; “+++” vs. “++” vs. “+” in general denotes ˜4-fold differences in potency; “+++” vs. “++” vs. “+” in general denotes ˜4-fold differences in potency; “−” denotes no activity at any dose tested, up to 1000× the effective dose of halofuginone; settings: spreading of cells assessed by light microscopy 28 hours after treatment
# Experimental: The ability of halofuginone and analogs thereof to inhibit the spreading of freshly plated primary dermal fibroblasts was examined. Human primary dermal fibroblasts were replated and halofuginone added immediately after replating; spreading of cells was assessed by light microscopy 28 hours after treatment with compound. “+++” vs. “++” vs. “+” in general denotes ˜4-fold differences in potency. “−” denotes no activity at any dose tested, up to 1000× the effective dose of halofuginone.
# STAT3 phosphorylation = experiment: Kinetics of STAT3 phosphorylation in developing Th17 cells; format: cell-based, murine; settings: TGFβ plus IL-6; 5 nM or 10 nM HF
# Experimental: FIG. 6. […] FIG. 6A is a set of representative histograms displaying the kinetics of STAT3 phosphorylation in developing Th17 cells treated with or without halofuginone. Resting naïve T cells (grey, shaded peak), T cells activated in the presence of TGFβ plus IL-6 (TGFβ/IL-6) treated with 10 nM MAZ1310 (light gray trace), 5 nM HF (medium gray trace), or 10 nM HF (dark gray trace). T cells were fixed at the indicated times and intracellular phospho-STAT3 staining was performed.
# Th17 differentiation is synergistically regulated by TGFβ and the pro-inflammatory cytokines IL-6 and IL-21. […] Since STAT3 is the major transducer of IL-6 and IL-21 signaling, the kinetics of STAT3 phosphorylation in HF-treated T cells were examined.
smiles,measurement,setting,value
"O=C(CC1NCCCC1O)Cn1cnc2cc(Br)c(Cl)cc2c1=O (centres unmarked) [Compound 1, 7-bromo-6-chloro-3-[3-(3-hydroxy-2-piperidinyl)-2-oxopropyl]-4(3H)-quinazolinone]",dermal ECM deposition,dermal ECM deposition,reduces excess dermal ECM deposition
same,time to maximum eIF2α phosphorylation,[1]; 10 nM HF,≤ 2 h
same,rescue of eIF2alpha phosphorylation by added amino acid,"[1]; 10 nM halofuginone, 1 mM added amino acid",blocked by added proline
same,"phosphorylation of Ser51 of eIF2alpha, GCN2 dependence","[1]; 10 nM, 4 hours, T cells from wild type or GCN2−/− mice",leads to phosphorylation of Ser51 of eif2alpha only in wild type cells and not in GCN2−/− cells
same,concentration at which eIF2α phosphorylation plateaued,[1]; 4 hours-post TCR activation,5 to 10 nM
same,concentration inducing detectable eIF2α phosphorylation,[1]; 4 hours-post TCR activation,2.5 nM
same,concentration with highest ATF4 expression levels,[1]; 4 hours-post TCR activation,5 to 10 nM
same,"stress response pathway: eIF2α phosphorylation, ATF4 expression, Xbp-1 splicing","[1]; 4 hours, 10 nM HF or 1 μg/ml tunicamycin",inducing eIF2α phosphorylation without promoting Xbp-1 splicing
same,toxicity in humans,[2],"some toxicity in humans, such as nausea, vomiting, and fatigue, and possibly bleeding complications"
same,inhibition of translation of luciferase,[3]; 400 nM,5-6 orders of magnitude
same,rescue of translation inhibition by added amino acids,"[3]; 400 nM halofuginone, 1-2 mM amino acids","Addition of proline, either alone or in combination with phenylaline and serine, rescues inhibition of translation"
same,Translational inhibition,[3]; luciferase RNA reporter,+++
same,Fibroblast inhibition,[4],+++
same,STAT3 phosphorylation,STAT3 phosphorylation,"decreased the maintenance of STAT3 phosphorylation, beginning around 12 hours post activation"
